Measurements reported in patent US5298621A, “Oligopeptide derivatives of ipoxantine endowed with immunomodulating activity and pharmaceutical compositions containing same” (Sigma-Tau Industrie Farmaceutiche Riunite S.p.A., priority 1990, dated 1994).

What was measured:
rat granulocytes [1] = experiment: "In vitro" chemotactic activity of rat granulocytes (modified Boyden chamber); assay type: cell-based; settings: for "in vitro" chemotaxis (μ ± S.E.): 10 mcg/mL, granulocytes of untreated rats; for chemotactic activity of rat granulocytes versus the control (in words): in vitro and in vitro-ex vivo
Description: (§1) Test 3 Assessment of the "in vitro" and "in vitro-ex vivo" effect of ST 657 and ST 789 on the chemotactic activity of rat granulocytes.
(§2) Male Fisher-344 rats aged about 3 months were used (6-8 animals for each experimental group).
(§3) The compounds were tested "in vitro", 10 mcg/mL, and "in vitro-ex vivo" following administration of 25 mg/kg/day from day -5 to day -1 (taking of blood sample at day 0).
(§4) The experimental procedure is described by Cates, L. K. et al (1987), Modified Boyden chamber method of measuring polymorphonuclear leukocyte chemotaxis, Leukocyte Chemotaxis, Raven Press, N.Y. 67.
(§5) Blood samples were collected from animals sacrificed by decapitation. Following passage through heparinized gauze, blood was diluted (1:1) with dextran (1.5% in saline) and allowed to sediment for 90 minutes.
The concentration of the granulocytes, collected from blood via known techniques, was adjusted to 2×10^6 cells/mL in Hank's medium. They were then seeded on 3 μMillipore filters which were placed in migration chambers.
These chambers were prepared using Hank's medium to evaluate the spontaneous migration, and casein (2 mL of solution, at the concentration 5 mg/mL) to evaluate the induced migration.
In performing the "in vitro" test, granulocytes of untreated animals were used, to which the compounds had been added before seeding thereof on the Millipore filters preparation of migration chambers.
Following incubation of the samples at 37° C. and 5% CO2 for 60 minutes, the filters were stained and mounted on microscope slides.
Microscopic examination of samples versus control allows the distance (in μm) run by the two most forward granulocytes in the framed field to be determined. Granulocyte migration is determined by calculating the mean value of 10 readings performed as a whole on two filters per sample.
The results obtained were statistically processed with Student's "t" test (Biostatistics in Pharmacology, loc, cit.).

Sarcoma S 180 cells = experiment: Protective effect in S 180 Sarcoma-bearing mice; assay type: in vivo; settings: for Dead/total / MST (mean survival time calculated by the median and the first interquartile range): 0.25 mg/kg i.p. from day +1 to day +10; for Weight control (x ± S.E.): 0.25 mg/kg/day i.p. day +1 to +10, in g (unit assumed); for number of surviving animals at the indicated day / animals survived (footnote, end of observation): group of 9, 0.25 mg/kg/day; for animals survived (footnote, end of observation): after day +26
Description: (§6) Test 4 Assessement of the protective effect of ST 657 and ST 789 in tumor-bearing mice.
(§7) Male DBA/2 mice and male CD1 mice (Charles River), both aged 6 weeks, were used.
CD1 mice were inoculated i.p. with 1×10^3 Sarcoma S 180 cells (ATCC, loc. cit.) in 0.1 mL of Hank's medium.
(§8) The compounds were adminstered i.p. in sterile saline (0.25 mg/kg/day) from day +1 to day +10 (tumor transplantation at day 0).
(§9) Also the body weight of the animals was monitored, from day 0 to day +16 for the L 1210 leukemia-bearing mice, and from day 0 to day +21 for the S 180 sarcoma-bearing mice.
(§10) Monitoring of body weight was conducted in order to evaluate the evolution of the neoplastic process. Compounds activity was assessed as Mean Survival Time (MST).

Salmonella typhimurium = experiment: Protective effect in immunodepressed mice experimentally infected with Salmonella typhimurium; assay type: in vivo; settings: Salmonella typhimurium 1 × 10^3 cells
Excerpt: (§11) Test 2 Assessment of the protective effect induced by ST 657, ST 733, ST 754 and ST 789 on immunodepressed mice experimentally infected.
(§12) Male CD1 mice (Charles River, Italy) of different ages were used: mice aged 6 and 12 weeks infected with Klebsiella and mice aged 7 weeks infected with Salmonella (10 mice per group).
(§13) Systemic infection in mice was induced via i.p. inoculum of either a pathogenic strain of Klebsiella (K. pneumoniae) or a pathogenic strain of Salmonella (S. typhimurium), which were able to provoke death of the animals within 5 and 20 days, respectively, following the challenge.
(§14) Infective doses prepared from overnight broth cultures corresponding to 1.5×10^5 and 3.5×10^5 live cells of K. pneumoniae, and 1×10^3 live cells of S. typhimurium were suspended in 0.2 mL of 5% gastric mucine and then injected.
(§15) The immunosuppressor (cyclophosphamide) was administered i.p. in 0.2 mL of sterile saline, 100 mg/kg, 5 days before the infective challenge.
(§16) The compounds were administered i.p., 0.25 and 25 mg/kg/day, from day -5 to day -1 (challenge at day 0).
(§17) The results obtained are expressed as % mortality and statistically processed with the Fisher's exact test (Biostatistics in Pharmacology, vol. II, Pergamon Press).

K. pneumoniae = experiment: Protective effect in immunodepressed mice experimentally infected with K. pneumoniae; assay type: in vivo; settings: for % Mortality: cyclophosphamide immunodepressed
Excerpt: as §11, §12, §13, §14, §15, §16, §17

rat granulocytes [2] = experiment: "In vitro-ex vivo" chemotactic activity of rat granulocytes; settings: 25 mg/kg/day i.p. from day -5 to day -1, blood sample at day 0
Description: as §1, §2, §3, §4, §5
The concentration of the granulocytes, collected from blood via known techniques, was adjusted to 2×10^6 cells/mL in Hank's medium. They were then seeded on 3 μMillipore filters which were placed in migration chambers. […]
Microscopic examination of samples versus control allows the distance (in μm) run by the two most forward granulocytes in the framed field to be determined. Granulocyte migration is determined by calculating the mean value of 10 readings performed as a whole on two filters per sample. […]

Leukemia L 1210 cells = experiment: Protective effect in L 1210 Leukemia-bearing mice; assay type: in vivo; settings: for Dead/total / MST (mean survival time calculated by the median and the first interquartile range): 0.25 mg/kg i.p. from day +1 to day +10; for Weight control (x ± S.E.): 0.25 mg/kg/day day +1 to +10, in g (unit assumed); for number of surviving animals at the indicated day: 0.25 mg/kg/day
Description: as §6, §7
DBA/2 mice were inoculated i.p. with 1×10^5 Leukemia L 1210 cells (ATCC-American Type Culture Collection-Cell Lines & Hybridomas, 5th Ed., 1985) in 0.1 mL of Hank's medium.
as §8, §9, §10

[3] = 0.25 mg/kg/day i.p. day -5 to -1
[4] = K. pneumoniae 1.5 × 10^5 cells, animals aged 6 weeks, 0.25 mg/kg/day i.p. day -5 to -1
[5] = K. pneumoniae 1.5 × 10^5 cells, animals aged 6 weeks, 25 mg/kg/day i.p. day -5 to -1
[6] = K. pneumoniae 3.5 × 10^5 cells, animals aged 12 weeks, 0.25 mg/kg/day i.p. day -5 to -1
[7] = K. pneumoniae 3.5 × 10^5 cells, animals aged 12 weeks, 25 mg/kg/day i.p. day -5 to -1

Compound	"in vitro" chemotaxis (μ ± S.E.) (rat granulocytes [1]) [μ]	chemotactic activity of rat granulocytes versus the control (in words) (rat granulocytes [1])	Dead/total (Sarcoma S 180 cells)	MST (mean survival time calculated by the median and the first interquartile range) (Sarcoma S 180 cells)	Weight control (x ± S.E.) (Sarcoma S 180 cells; Day 0)	Weight control (x ± S.E.) (Sarcoma S 180 cells; Day 2)	Weight control (x ± S.E.) (Sarcoma S 180 cells; Day 4)	Weight control (x ± S.E.) (Sarcoma S 180 cells; Day 7)	Weight control (x ± S.E.) (Sarcoma S 180 cells; Day 9)	Weight control (x ± S.E.) (Sarcoma S 180 cells; Day 11)	Weight control (x ± S.E.) (Sarcoma S 180 cells; Day 14)	Weight control (x ± S.E.) (Sarcoma S 180 cells; Day 16)	Weight control (x ± S.E.) (Sarcoma S 180 cells; Day 21)	number of surviving animals at the indicated day (Sarcoma S 180 cells; Day 21)	animals survived (footnote, end of observation) (Sarcoma S 180 cells)	% Mortality (Salmonella typhimurium; [3]) [%]	% Mortality (Salmonella typhimurium; 25 mg/kg/day i.p. day -5 to -1) [%]	% Mortality (K. pneumoniae; [4]) [%]	% Mortality (K. pneumoniae; [5]) [%]	% Mortality (K. pneumoniae; [6]) [%]	further results
N=C(N)NCCC[C@H](NC(=O)OCCCCCn1cnc2c(=O)[nH]cnc21)C(=O)O [ST 789, N-5-(ipoxantin-9-yl) pentyloxycarbonylarginine, reference compound]	38.8 ± 4.47	totally inactive	8/9	22.0 (20.5-≥25.5)	21.8 ± 0.5	22.4 ± 0.5	24.3 ± 0.6	25.8 ± 0.7	26.9 ± 0.8	29.2 ± 1.2	33.1 ± 2.0	34.0 ± 2.0	32.8 ± 2.2	5	One	10	20	50	40	50	% Mortality (K. pneumoniae; [7]): 60%; "in vitro-ex vivo" chemotaxis (μ ± S.E.) (rat granulocytes [2]): 79.8 ± 1.53 μ; Dead/total (Leukemia L 1210 cells): 9/9; MST (mean survival time calculated by the median and the first interquartile range) (Leukemia L 1210 cells): 14.0 (14.0-15.0); Weight control (x ± S.E.) (Leukemia L 1210 cells; Day 0): 18.2 ± 0.3; Weight control (x ± S.E.) (Leukemia L 1210 cells; Day 2): 18.0 ± 0.4; Weight control (x ± S.E.) (Leukemia L 1210 cells; Day 4): 19.1 ± 0.3; Weight control (x ± S.E.) (Leukemia L 1210 cells; Day 7): 20.1 ± 0.4; Weight control (x ± S.E.) (Leukemia L 1210 cells; Day 9): 21.8 ± 0.4; Weight control (x ± S.E.) (Leukemia L 1210 cells; Day 11): 24.0 ± 0.4; number of surviving animals at the indicated day (Leukemia L 1210 cells; Day 14): 3; Weight control (x ± S.E.) (Leukemia L 1210 cells; Day 14): 22.7 ± 0.9; number of surviving animals at the indicated day (Leukemia L 1210 cells; Day 16): 1; Weight control (x ± S.E.) (Leukemia L 1210 cells; Day 16): 22.5
N-5-(ipoxantin-9-yl) pentyloxycarbonyl glycyl L-aspartate disodium salt [ST 657]	54.8 ± 3.05	effective in enhancing the chemotactic activity	5/9	26.0 (20.5-≥47.0)	22.2 ± 0.3	22.0 ± 0.6	23.9 ± 0.4	26.1 ± 0.4	27.3 ± 0.5	28.6 ± 0.6	31.2 ± 1.0	31.4 ± 1.1	32.9 ± 1.0	6	4	0	0	50	20	33	MST / protection in tumor-bearing mice (in words) (Sarcoma S 180 cells; comparison with ST 789, S 180 and L 1210 tables): higher MST and/or a better protection than ST 789; % Mortality (K. pneumoniae; [7]): 60%; protective effect in immunodepressed infected mice (in words) (K. pneumoniae; comparison with ST 789, K. pneumoniae and S. typhimurium tables): protective effect more potent than ST 789; "in vitro-ex vivo" chemotaxis (μ ± S.E.) (rat granulocytes [2]): 89.3 ± 1.95 μ; Dead/total (Leukemia L 1210 cells): 10/10; MST (mean survival time calculated by the median and the first interquartile range) (Leukemia L 1210 cells): 15.5 (13.0-17.0); Weight control (x ± S.E.) (Leukemia L 1210 cells; Day 0): 18.2 ± 0.5; Weight control (x ± S.E.) (Leukemia L 1210 cells; Day 2): 18.2 ± 0.5; Weight control (x ± S.E.) (Leukemia L 1210 cells; Day 4): 18.8 ± 0.5; Weight control (x ± S.E.) (Leukemia L 1210 cells; Day 7): 20.1 ± 0.4; Weight control (x ± S.E.) (Leukemia L 1210 cells; Day 9): 21.7 ± 0.6; Weight control (x ± S.E.) (Leukemia L 1210 cells; Day 11): 23.9 ± 0.8; number of surviving animals at the indicated day (Leukemia L 1210 cells; Day 14): 6; Weight control (x ± S.E.) (Leukemia L 1210 cells; Day 14): 23.1 ± 0.6; number of surviving animals at the indicated day (Leukemia L 1210 cells; Day 16): 3; Weight control (x ± S.E.) (Leukemia L 1210 cells; Day 16): 22.4 ± 0.6
